Results on 11 compounds are retold here after ChEMBL document CHEMBL5500324, “The potential of marine-derived piperazine alkaloids: Sources, structures and bioactivities” (Eur J Med Chem, 2024).

Values after ≈ are worked out from the molar mass of the structure shown.

Data set [1] relates to L1210. The data set is described as follows: Cytotoxicity against mouse L1210 cells assessed as reduction in cell growth. The class given is functional. The note with it: read-out: ED50 (the source's name).
The test system of data set [2] is MCF7. The data set is described as follows: Cytotoxicity against human MCF7 cells assessed as reduction in cell viability. The format is functional, cell-based.
The nature of data set [3]: Cytotoxicity against mouse FM3A tsFT210 cells assessed as inhibition of cell growth. The class given is functional, cell-based.
The test system of data set [4] is U-937. The data set is described as follows: Cytotoxicity against human U-937 cells assessed as reduction in cell viability. The class given is functional, cell-based.
For data set [5], the system named is PC-3. The experiment in a line: Cytotoxicity against human PC-3 cells assessed as reduction in cell viability. The class given is functional, cell-based.
Data set [6] in a line: Cytotoxicity against human Huh7.5 cells assessed as reduction in cell viability incubated for 72 hrs by CCK-8 assay. The format is toxicity, cell-based, Huh-7.5.
Data set [7] deals with HL-60. The experiment in a line: Cytotoxicity against human HL-60 cells assessed as reduction in cell growth. The format is functional, cell-based.
In data set [8] the test system is U-937. The data set is described as follows: Cytotoxicity against human U-937 cells assessed as inhibition of cell growth. The class given is functional, cell-based.
Data set [9] deals with T47D. The experiment in a line: Antiproliferative activity against human T47D cells incubated for 48 hrs by MTT assay. The format is functional, cell-based.
Data set [10] concerns P388. The data set is described as follows: Cytotoxicity against mouse P388 cells assessed as cell growth inhibition. The class given is functional. The note with it: read-out: ED50 (the source's name).
The test system of data set [11] is BC. The experiment in a line: Cytotoxicity against human BC cells assessed as inhibition of cell growth. The class given is functional, cell-based.
Data set [12] concerns HCT-116. The experiment in a line: Antiproliferative activity against human HCT-116 cells assessed as reduction in cell viability incubated for 24 hrs by MTT assay. The format is functional, cell-based. Particulars: HCT-116, 24 h.
The test system of data set [13] is KB. The data set is described as follows: Cytotoxicity against human KB cells assessed as inhibition of cell growth. The class given is functional, cell-based.
In data set [14] the test system is QG-56. The experiment in a line: Cytotoxicity against human QG-56 cells assessed as reduction in cell growth incubated for 24 hrs by MTT assay. The format is functional, cell-based. The note with it: QG-56, 24 h.
The subject of data set [15] is DU-145. The experiment in a line: Cytotoxicity against human DU-145 cells assessed as cell growth inhibition measured after 48 hrs by MTT assay. The class given is functional, cell-based. Particulars: DU-145, 48 h.
In data set [16] the test system is SF-268. The experiment in a line: Cytotoxicity against human SF-268 cells assessed as reduction in cell viability incubated for 72 hrs by SRB assay. The note with it: SF-268, 72 h. The format is functional, cell-based.
The subject of data set [17] is HepG2. The data set is described as follows: Cytotoxicity against human HepG2 cells assessed as reduction in cell viability incubated for 72 hrs by SRB assay. The format is functional, cell-based. Particulars: HepG2, 72 h.
Data set [18] relates to HeLa. The experiment in a line: Cytotoxicity against human HeLa cells assessed as reduction in cell viability measured for 24 hrs by MTT assay. The format is functional, cell-based.
Data set [19] deals with K562. The experiment in a line: Antiproliferative activity against human K562 cells assessed as reduction in cell growth incubated for 72 hrs by MTT assay. Particulars: K562, 72 h. The class given is functional, cell-based.
For data set [20], the system named is HL-60. The experiment in a line: Antiproliferative activity against human HL-60 cells assessed as reduction in cell growth incubated for 72 hrs by MTT assay. The format is functional, cell-based. The note with it: HL-60, 72 h.
Data set [21] relates to BGC-823. The data set is described as follows: Cytotoxicity against human BGC-823 cells assessed as reduction in cell growth measured after 72 hrs by MTT assay. The class given is functional, cell-based. Particulars: BGC-823, 72 h.
Data set [22] has as its system MCF7. The experiment in a line: Cytotoxicity against human MCF7 cells assessed as reduction in cell growth measured after 72 hrs by MTT assay. The class given is functional, cell-based. Particulars: MCF7, 72 h.
The subject of data set [23] is A549. The data set is described as follows: Cytotoxicity against human A549 cells assessed as reduction in cell viability incubated for 48 hrs by Celltiter-Glo assay. The note with it: A549, 48 h. The format is functional, cell-based.
Data set [24] concerns HCT-116. The data set is described as follows: Cytotoxicity against human HCT-116 cells assessed as reduction in cell viability incubated for 48 hrs by Celltiter-Glo assay. The format is functional, cell-based. The note with it: HCT-116, 48 h.
The nature of data set [25]: Cytotoxicity against human HaCaT cells incubated for 24 hrs by MTS assay. The format is toxicity, cell-based.
Data set [26] concerns MKN-1. The data set is described as follows: Cytotoxicity against human MKN-1 cells assessed as reduction in cell viability. The class given is functional, cell-based.

As for `CN1C[C@H](c2c[nH]c3cc(Br)ccc23)NC[C@H]1c1c[nH]c2cc(Br)ccc12`, the EC50 in data set [1] was 10 µg/mL (≈ 20.5 µM).

With `COc1ccc2c3c([nH]c2c1)[C@H](C=C(C)C)N1C(=O)[C@]2(O)CCCN2C(=O)[C@@]1(O)[C@H]3OC`, in [2], the IC50 turned out to be 7.6 µM.

Consider `CS[C@]1(CO)C(=O)N2C3C(=CC=CC3O)C[C@@]2(SC)C(=O)N1C` (some centres not stated), for which the values for the half-maximal inhibitory concentration (IC50) in data set [3], in data set [4] and in data set [5] were 89.8 µg/mL (≈ 252 µM), 0.52 µM and 15.9 µM, respectively.

With `CO[C@@H]1CC(=O)[C@@H]2C[C@@]34SS[C@]5(C[C@H]6C(=O)CC(=O)[C@H](O)[C@H]6N5C3=O)C(=O)N4[C@@H]2[C@H]1O`, the concentration for half-maximal inhibition (IC50) at 72 h in data set [6] came to 9.52 µM.

As for `CC(C)=CCC/C(C)=C/COc1ccc(/C=C2\NC(=O)[C@H](C)N(O)C2=O)cc1`, the IC50 in [7], in data set [8] and in [9] was 11.6 µg/mL (≈ 30.2 µM) throughout.

Take `CS[C@H]1C(=O)N2[C@H]3Nc4ccccc4[C@@]3(c3c[nH]c4ccccc34)C[C@]2(SC)C(=O)N1C`: the EC50 in data set [10] came out at 20 µg/mL (≈ 43 µM).

Regarding `COc1cc2c(cc1O)CCNC21CS[C@@H]2c3c(OC(C)=O)c(C)c4c(c3[C@H](COC1=O)N1[C@@H]2[C@H]2c3c(cc(C)c(OC)c3O)C[C@@H]([C@@H]1C#N)N2C)OCO4` (some centres not stated), the IC50 came to 0.0025 µM in data set [11]; 0.0004 µM in data set [12]; 0.034 nM in [13]; 0.0018 µM in [14]; 0.00066 µM in [15].

In the case of `C=CC(C)(C)c1[nH]c2ccccc2c1/C=C1\NC(=O)[C@@]2(CC[C@@]3(O)c4cc(OC)cc(O)c4C(=O)c4c(O)cc(C)c2c43)NC1=O`, the figures for the IC50 in [16] and in [17] were 12.5 µM and 15 µM, respectively.

For `C=CC(C)(C)[C@@]12C[C@H]3C(=O)N[C@@H](Cc4ccc(O)cc4)C(=O)N3[C@@H]1N([C@H]1O[C@]3(C[C@@H]1NC(=O)/C=C/C(C)CC(C)CCCCCC)[C@@H]1O[C@@H]1[C@](O)(CC(C)=O)[C@@H]1O[C@@H]13)c1ccccc12` (some centres not stated), the IC50 in data set [18] is 17.7 µM; in data set [19], 19.9 µM; in [20], 12.1 µM; in data set [21], 16.6 µM; in data set [22] it was 8 µM.

On to `CCCCCCCCCC(CC(=O)NCCCN)N1CC(=O)N(O)C(Cc2ccccc2)C1=O` (configuration not stated), for which the results for the IC50 in data set [23] and in [24] were 43.2 µM and 59.9 µM, respectively. The half-maximal inhibitory concentration (IC50) at 24 h in data set [25] was 50 µM.

As to `CO[C@H]1c2c([nH]c3ccccc23)[C@H](C=C(C)C)N2C(=O)[C@@H]3CCCN3C(=O)[C@@]12O`, the IC50 in [2] came to 10.8 µM; in data set [26], 20.7 µM.
